Measurements: patent US6822100B2 (Bristol-Myers Squibb Company, priority 2001, dated 2004)
Like-named read-outs stand apart in the source and are kept apart here.

What was measured:
[1] = target: T1, human serotonin transporters (Homo sapiens, UniProt P31645); assay: Serotonin Transporter Binding Assay; details: HEK-hSERT cell membranes, 1 nM [3H]-citalopram, Cheng and Prusoff
T1 construct: expressed in transfected cells; host or cells: HEK-293 (HEK-hSERT), membrane homogenates
How it was run: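 Displacement of 1 nM [^3H]-citalopram (1 hr, 25° C, Tris pH 7.4 with NaCl/KCl) from membranes of HEK-293 cells stably expressing human SERT, with bound ligand read after filtration. 10 μM fluoxetine defined non-specific binding. Ki values were derived via Cheng–Prusoff from IC50 displacement-curve midpoints.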

[2] = target: T2, recombinant human dopamine D2L receptors (Homo sapiens, UniProt P14416); assay: Dopamine Binding Assay; details: HEK-D2L cell membranes, 150 pM [3H]-spiperone, Cheng and Prusoff
T2 construct: expressed in transfected cells; host or cells: HEK-293 (HEK-D2L), membrane homogenates
T2 sequence (P14416 whole entry): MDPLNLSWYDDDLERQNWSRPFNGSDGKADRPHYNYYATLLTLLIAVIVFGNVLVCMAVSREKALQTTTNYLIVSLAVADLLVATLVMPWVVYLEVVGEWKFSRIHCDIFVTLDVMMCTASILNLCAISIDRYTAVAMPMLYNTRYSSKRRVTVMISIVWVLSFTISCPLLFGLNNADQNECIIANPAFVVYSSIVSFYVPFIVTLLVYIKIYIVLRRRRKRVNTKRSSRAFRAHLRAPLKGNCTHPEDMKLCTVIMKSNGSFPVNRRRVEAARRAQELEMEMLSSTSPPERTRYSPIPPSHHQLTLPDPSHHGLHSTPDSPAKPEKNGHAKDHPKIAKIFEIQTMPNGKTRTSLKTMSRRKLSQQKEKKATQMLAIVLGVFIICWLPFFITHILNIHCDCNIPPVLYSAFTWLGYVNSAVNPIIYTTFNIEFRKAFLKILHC
How it was run: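 Competition binding on HEK-293 membranes stably expressing human D2L (~5 μg protein) with 150 pM [3H]-spiperone, 1.5 h at 22 °C in 50 mM Tris pH 7.4, 1 mM EDTA, 6 mM MgCl2. Filtration read-out; non-specific binding defined with 2 μM (+)butaclamol, Ki by Cheng-Prusoff.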

T1 sequence (P31645 whole entry): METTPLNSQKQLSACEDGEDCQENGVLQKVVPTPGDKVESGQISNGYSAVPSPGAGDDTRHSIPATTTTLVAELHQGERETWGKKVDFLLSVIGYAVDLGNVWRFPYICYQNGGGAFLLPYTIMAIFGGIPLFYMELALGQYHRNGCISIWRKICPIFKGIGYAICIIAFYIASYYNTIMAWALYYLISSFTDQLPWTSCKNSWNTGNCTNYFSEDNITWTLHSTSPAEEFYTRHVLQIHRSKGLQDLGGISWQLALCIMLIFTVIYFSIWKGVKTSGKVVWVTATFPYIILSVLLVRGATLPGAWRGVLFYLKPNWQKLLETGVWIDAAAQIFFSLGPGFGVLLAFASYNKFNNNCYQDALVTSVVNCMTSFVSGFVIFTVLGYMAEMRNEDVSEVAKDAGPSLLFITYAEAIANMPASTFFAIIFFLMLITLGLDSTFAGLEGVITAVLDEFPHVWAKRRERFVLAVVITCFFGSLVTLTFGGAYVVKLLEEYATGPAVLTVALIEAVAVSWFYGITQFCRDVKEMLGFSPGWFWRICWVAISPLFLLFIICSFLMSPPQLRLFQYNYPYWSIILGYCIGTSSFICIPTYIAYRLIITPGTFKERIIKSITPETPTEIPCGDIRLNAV

Ki ([1]; read-out: SERT Ki) [nM]	Ki [2] [nM]	SMILES	melting point	Ki ([1]; SERT Ki (nM)) [nM]
10 to 100	100 to 1000	CN(Cc1ccccc1)C[C@H]1C[C@@H]1c1c[nH]c2cc(C#N)ccc12 (racemic) [Example 162, 3-{2-[(Benzyl-methyl-amino)-methyl]-cyclopropyl}-1H-indole-6-carbonitrile]	–	–
10 to 100	100 to 1000	Fc1ccc2[nH]cc(C3CC3CNCc3ccccn3)c2c1 (stereo not drawn) [Example 56, trans-2-[5-Fluoroindol-3-yl]-1-[N-(2-pyridylmethyl)aminomethyl]-cyclopropane]	–	–
10 to 100	100 to 1000	CCOC(=O)NCCCN(C)C[C@@H]1C[C@H]1c1c[nH]c2ccc(F)cc12 (relative stereo) [Example 105, trans-2-[5-Fluoroindol-3-yl]-1-[N,N-methyl-2-amino(ethylcarbamoyl)propylaminomethyl]-cyclopropane]	–	–
10 to 100	100 to 1000	CCN(CCNC(=O)OC)C[C@@H]1C[C@H]1c1c[nH]c2ccc(F)cc12 (relative stereo) [Example 108, trans-1-[N,N-Ethyl-2-amino(methylcarbamoyl)ethylaminomethyl]-2-[5-fluoroindol-3-yl]-cyclopropane]	–	–
10 to 100	10 to 100	Fc1ccc2[nH]cc(C3CC3CNCCc3ccccc3F)c2c1 (stereo not drawn) [Example 59, trans-2-[5-Fluoroindol-3-yl]-1-[N-(2-fluorophenyl)ethylaminomethyl]-cyclopropane]	–	–
10 to 100	10 to 100	N#Cc1ccc2[nH]cc([C@@H]3C[C@H]3CNCCc3c[nH]cn3)c2c1 (relative stereo) [Example 23, trans-2-[5-Cyanoindol-3-yl]-1-[N-2-(4-imidazolyl)ethylaminomethyl]-cyclopropane]	–	–
10 to 100	100 to 1000	Fc1ccc2[nH]cc(C3CC3CNCc3ccccc3F)c2c1 (stereo not drawn) [Example 53, trans-1-[N-(2-Fluorobenzyl)aminomethyl]2-[5-fluoroindol-3-yl]-cyclopropane]	–	–
1 to 10	100 to 1000	CCN(CCNC(=O)OC(C)C)C[C@@H]1C[C@H]1c1c[nH]c2ccc(C#N)cc12 (relative stereo) [Example 96, trans-2-[5-Cyanoindol-3-yl]-1-[N,N-ethyl-2-amino(isopropylcarbamoyl)ethylaminomethyl]-cyclopropane]	–	–
1 to 10	10 to 100	N#Cc1ccc2[nH]cc([C@@H]3C[C@H]3CNCCc3ccccc3)c2c1 (relative stereo) [Example 40]	–	–
< 1	> 1000	CCOC(=O)NCCN(CC)C[C@@H]1C[C@H]1c1c[nH]c2ccc(C#N)cc12 (relative stereo) [Example 94, trans-2-[5-Cyanoindol-3-yl]-1-[N,N-ethyl-2-amino(ethylcarbamoyl)ethylaminomethyl]-cyclopropane]	–	–
1 to 10	> 1000	CCN(CCNC(=O)OC)C[C@@H]1C[C@H]1c1c[nH]c2ccc(C#N)cc12 (relative stereo) [Example 93, trans-2-[5-Cyanoindol-3-yl]-1-[N,N-ethyl-2-amino(methylcarbamoyl)ethylaminomethyl]-cyclopropane]	–	–
10 to 100	100 to 1000	CCOC(=O)NCCCN(CC)C[C@@H]1C[C@H]1c1c[nH]c2ccc(F)cc12 (relative stereo) [Example 113]	–	–
10 to 100	100 to 1000	Fc1ccc(CNCC2CC2c2c[nH]c3ccc(F)cc23)cc1 (stereo not drawn) [Example 55, trans-1-[N-(4-Fluorobenzyl)aminomethyl]2-[5-fluoroindol-3-yl]-cyclopropane]	–	–
1 to 10	10 to 100	COc1ccc(CCNC[C@@H]2C[C@H]2c2c[nH]c3ccc(C#N)cc23)cc1 (relative stereo) [Example 43]	–	–
1 to 10	100 to 1000	N#Cc1ccc2[nH]cc(C3CC3CNCc3ccc(F)cc3)c2c1 (stereo not drawn) [Example 13, trans-2-[5-Cyanoindol-3-yl]-1-[N-(4-fluorobenzyl)aminomethyl]-cyclopropane]	–	–
1 to 10	10 to 100	CCCOC(=O)NCCCN(C)C[C@@H]1C[C@H]1c1c[nH]c2ccc(C#N)cc12 (relative stereo) [Example 91, trans-2-[5-Cyanoindol-3-yl]-1-[N,N-methyl-2-amino(propylcarbamoyl)propylaminomethyl]-cyclopropane]	–	–
1 to 10	10 to 100	CN(CCc1ccccc1)C[C@@H]1C[C@H]1c1c[nH]c2ccc(C#N)cc12 (relative stereo) [Example 39, trans-2-[5-Cyanoindol-3-yl]-1-[N,N-methyl-phenylethylaminomethyl]-cyclopropane]	–	–
10 to 100	100 to 1000	N#Cc1ccc2[nH]cc(C3CC3CNCc3cccnc3)c2c1 (stereo not drawn) [Example 15, trans-2-[5-Cyanoindol-3-yl]-1-[N-(3-pyridyl)methylaminomethyl]-cyclopropane]	–	–
1 to 10	> 1000	COC(=O)NCCCN(C)C[C@@H]1C[C@H]1c1c[nH]c2ccc(C#N)cc12 (relative stereo) [Example 89, trans-2-[5-Cyanoindol-3-yl]-1-[N,N-methyl-2-amino(methylcarbamoyl)propylaminomethyl]-cyclopropane]	–	–
10 to 100	100 to 1000	N#Cc1ccc2[nH]cc(C3CC3CNCCCn3ccnc3)c2c1 (stereo not drawn) [Example 24, trans-2-[5-Cyanoindol-3-yl]-1-[N-3-(1-imidazolyl)propylaminomethyl]-cyclopropane]	–	–
10 to 100	10 to 100	N#Cc1ccc2[nH]cc([C@@H]3C[C@H]3CN3CCc4ccccc4C3)c2c1 (relative stereo) [Example 37, trans-2-[5-Cyanoindol-3-yl]-1-[1,2,3,4-tetrahydro-1H-isoquinolin-2-yl-methyl]-cyclopropane]	–	–
1 to 10	100 to 1000	N#Cc1ccc2[nH]cc(C3CC3CNCCCc3cccnc3)c2c1 (stereo not drawn) [Example 22, trans-2-[5-Cyanoindol-3-yl]-1-[N-3-(3-pyridyl)propylaminomethyl]-cyclopropane]	–	–

SMILES	Ki ([1]; read-out: SERT Ki) [nM]	Ki [2] [nM]	melting point	Ki ([1]; SERT Ki (nM)) [nM]
CN(C)CC1CC1c1c[nH]c2ccc(F)cc12 (single isomer, unassigned) [Example 2, Trans-1-(N,N-dimethylaminomethyl)-2-[5-fluoroindol-3-yl]cyclopropane]	1 to 10	100 to 1000	199 to 200 °C (dec.)	–
CN(C)CC1CC1Cc1c[nH]c2ccc(F)cc12 (racemic) [Example 147, [2-(5-Fluoro-1H-indol-3-ylmethyl)-cyclopropylmethyl]-dimethylamine]	10 to 100	100 to 1000	239 to 241 °C	–
CN(C)CC1CC1c1c[nH]c2ccc(C#N)cc12 (single isomer, unassigned) [Example 1, Trans-2-[5-Cyanoindol-3-yl]-1-(N,N-dimethylaminomethyl)cyclopropane]	–	> 1000	120 to 121 °C	< 1
CN(C)CC1CC1c1c[nH]c2ccc(F)cc12 (single isomer, unassigned) [Example 130a, Cis-2-[5-Fluoroindol-3-yl]-1-(N,N-dimethylaminomethyl)cyclopropane]	–	> 1000	–	100 to 1000
N#Cc1ccc2[nH]cc(C3CC3CCN3CCCC3)c2c1 (centres unmarked) [Example 145, 3-[2-(2-Pyrrolidin-1-yl-ethyl)-cyclopropyl]-1H-indole-5-carbonitrile]	10 to 100	100 to 1000	–	–
CNC[C@H]1C[C@@H]1c1c[nH]c2cc(C#N)ccc12 (racemic) [Example 158, 3-(2-Methylaminomethyl-cyclopropyl)-1H-indole-6-carbonitrile]	–	> 1000	–	10 to 100
CN(C)CC1CC1c1c[nH]c2cc(F)c(F)cc12 (centres unmarked) [Example 152, [2-(5,6-Difluoro-1H-indol-3-yl)-cyclopropylmethyl]-dimethyl-amine]	–	> 1000	–	1 to 10
Fc1ccc2[nH]cc(C3CC3CN3CCOCC3)c2c1 (centres unmarked) [Example 141]	10 to 100	100 to 1000	–	–
N#Cc1ccc2[nH]cc([C@@H]3C[C@H]3CNCCc3cccs3)c2c1 (relative stereo) [Example 25]	1 to 10	100 to 1000	–	–
CNCC1CC1c1c[nH]c2ccc(F)cc12 (stereo not drawn) [Example 181, cis-1-(N-methylaminomethyl)-2-[5-fluoroindol-3-yl]-cyclopropane]	10 to 100	100 to 1000	–	–
CN(C)CC1CC1c1c[nH]c2ccc(F)cc12 (single isomer, unassigned) [Example 118, Cis-2-[5-Fluoroindol-3-yl]-1-(N,N-dimethylaminomethyl)cyclopropane]	–	> 1000	–	10 to 100
CN(C)CCCC1CC1c1c[nH]c2ccc(C#N)cc12 (stereo not drawn) [Example 174, Trans-2-[5-cyanoindol-3-yl]-1-(3-(N,N-dimethylamino)propyl)cyclopropane]	10 to 100	100 to 1000	–	–
CNC(C)C1CC1c1c[nH]c2ccc(C#N)cc12 (racemic) [Example 125, trans-3-[2-(1-Methylamino-ethyl)-cyclopropyl]-1H-indole-5-carbonitrile]	1 to 10	100 to 1000	–	–
N#Cc1ccc2[nH]cc(C3CC3CNCC3CC3)c2c1 (stereo not drawn) [Example 28, trans-2-[5-Cyanoindol-3-yl]-1-[N-cyclopropylmethylaminomethyl]-cyclopropane]	–	> 1000	–	10 to 100
Fc1ccc2[nH]cc(C3CC3CNCC3CC3)c2c1 (stereo not drawn) [Example 69, trans-1-[N-Cyclopropylmethylaminomethyl]-2-[5-fluoroindol-3-yl]-cyclopropane]	10 to 100	100 to 1000	–	–
